Experimental data published in publication PMC7215574, “Development of Thiazolidinones as Fungal Carbonic Anhydrase Inhibitors” (International Journal of Molecular Sciences, 2020).
Values after ≈ are worked out from the molar mass of the structure shown. Like-named read-outs stand apart in the source and are kept apart here.

What was measured:
Assay in all cases: microbe, parasite or virus in culture
Design in all cases: species or system clinical Candida isolates; CLSI broth microdilution MIC, Sabouraud dextrose broth, 35 °C, visual complete growth inhibition
[1] = tested on: T1, C. albicans 5 strains; conditions: Candida albicans, 24 h
T1 construct: 5 clinical isolates
Method: (§1) The in vitro antifungal activities were determined by the broth microdilution method with sabouraud dextrose broth (BBL Microbiology Systems, Cockeysville, MD, USA), as recommended by the by the CLSI [43]. Ninety-six-well polystyrene microtitre plates containing serial dilutions of each compound were inoculated with each microorganism to yield the appropriate density (1–5 × 10^3 cells/mL) in a 100-μL final volume. Each plate included (i) fungi without the addition of the compound, (ii) just the medium, and (iii) just the compound. Topical and systemic antifungal reference drugs, clotrimazole and fluconazole, were inserted in the experiment. The plates were incubated for 24 h at 35 °C. […] Three independent experiments were performed in triplicate. The antimicrobial activity of these thiazolidinones was evaluated versus 24 clinical Gram-positive (S. aureus and S. epidermidis) and Gram-negative (E. coli and Enterobacter spp.) microorganisms. The antifungal activity of these derivatives was then tested versus 16 clinical fungal isolates belonging to the most relevant Candida spp. (C. albicans, C. tropicalis, C. parapsilosis, C. sakè, and C. glabrata). Prior to testing, each isolate was cultured on a selective medium to ensure purity and optimal growth, as previously reported. The isolates were routinely identified by the morphological aspects of colonies and by biochemical identification. The used clinical isolates were collected from specimens of patients at the ‘Azienda Policlinico Umberto I’ (Sapienza University of Rome) and were obtained from hematology/oncology and surgery departments, which also included an intensive care unit. In particular, the samples were isolated from the upper and lower respiratory tract, blood, and indwelling venous catheters; the isolates were identified by conventional methodologies. Participating subjects gave their written informed consent for this study.

[2] = tested on: T2, C. glabrata 3 strains; conditions: Nakaseomyces glabratus, 24 h, read-out: Tested Fungi (MIC Values μg/mL) / C. glabrata 3 strains / 8–32
T2 construct: 3 clinical isolates
Method: as §1

[3] = tested on: T3, C. parapsilosis 2 strains; conditions: Lodderomyces parapsilosis, 24 h, read-out: Tested Fungi (MIC Values μg/mL) / C. parapsilosis 2 strains
T3 construct: 2 clinical isolates
Method: as §1

[4] = tested on: T4, C. tropicalis 3 strains; conditions: Candida tropicalis, 24 h, read-out: Tested Fungi (MIC Values μg/mL) / C. tropicalis 3 strains
T4 construct: 3 clinical isolates
Method: as §1

[5] = tested on: T5, Candida sake C. sakè 3 strains; conditions: Fermentozyma sake, 24 h; read-out: Tested Fungi (MIC Values μg/mL) / C. sakè 3 strains / 8–32
T5 construct: 3 clinical isolates
Method: as §1

| MIC ([1]; read-out: Tested Fungi (MIC Values μg/mL) / C. albicans 5 strains / 8–32 / 32–128) | MIC [2] | MIC [3] | MIC [4] | MIC [5] | MIC ([1]; read-out: Tested Fungi (MIC Values μg/mL) / C. albicans 5 strains / 32–128) | SMILES |
| --- | --- | --- | --- | --- | --- | --- |
| 2 µg/mL (≈ 5.8 µM) | 2 µg/mL (≈ 5.8 µM) | 2 µg/mL (≈ 5.8 µM) | 2 µg/mL (≈ 5.8 µM) | 2 µg/mL (≈ 5.8 µM) | – | Clc1ccccc1C(c1ccccc1)(c1ccccc1)n1ccnc1 [Clotrimazole] |
| – | 2 µg/mL (≈ 6.53 µM) | 2 µg/mL (≈ 6.53 µM) | 2 µg/mL (≈ 6.53 µM) | 2 µg/mL (≈ 6.53 µM) | 2 µg/mL (≈ 6.53 µM) | OC(Cn1cncn1)(Cn1cncn1)c1ccc(F)cc1F [Fluconazole] |
